Experimental data reported in patent publication US20040219201A1, “Tempamine compositions and methods of use” (priority 2001, published 2004).
Read-outs that look alike come from different tables or passages of the source.

What was measured:
[1] = Samuni et al. 1997; cited from earlier work
[2] = system: MCF-7 (human breast adenocarcinoma); experiment: Cytotoxicity assay (methylene blue); nitroxides alone or doxorubicin plus tempamine; type: cell-based; details: for IC50: Homo sapiens
Procedure: (§1) As described in Example 1, the cytotoxicity of tempamine was determined on three cell lines, MCF-7 (human breast adenocarcinoma), M-109S (doxorubicin-sensitive human breast carcinoma), and M-109R (doxorubicin-resistant human breast carcinoma). The effect of free tempamine on cell proliferation was determined by a methylene blue assay as described in Example 1B.
FIG. 4 is a plot comparing the percent survival of MCF-7 human breast carcinoma cells at various doses of tempamine (closed circles) and tempol (open circles) in vitro. The cells were analyzed after 72 hours of exposure to the nitroxides. Tempamine and tempol cell growth inhibitory activities were of similar magnitude.
(§2) In yet another aspect, the invention contemplates administration of tempamine in combination with chemotherapeutic agent. […] Doxorubicin was chosen as a model chemotherpeutic agent. The enhancement of doxorubicin cytotoxicity by tempamine was tested on three cell lines, as described in Example 1A. A cytotoxicity assay as described in Example 1B was used. Two of the cell lines, MCF-7 and M-109S, were doxorubicin-sensitive lines and one cell line, M-109R, was doxorubicin resistant. MCF-7 cells are more sensitive to tempamine (100 μM caused 75% growth inhibition), but are less sensitive to doxorubicin, than are M-109S cells.
(§3) MCF-7 (human breast adenocarcinoma), M-109S (doxorubicin-sensitive human breast carcinoma), and M-109R (doxorubicin-resistant human breast carcinoma) were maintained in RPMI medium (Biological Industries, Beit HaEmek, Israel) supplemented with 10% fetal calf serum (FCS). The cell lines were maintained under standard culture conditions at 37° C. in a humidified 5% CO2 atmosphere.
(§4) The effect of tempamine on cell proliferation was determined by the methylene blue assay (Horowitz, A. T., et al., Biochim BiophysActa. 1109:203, (1992)). Briefly, cells were seeded onto 96-well plates (MCF cells at a density of 6×10^3 cells per well, and M-109S and M-109R at a density of 1.5×10^3 cells per well) and allowed to grow for 24 hours prior to treatment with different concentrations of tempamine. After the addition of tempamine (5×10^−5 to 4×10^−4), the cells were incubated in RPMI +10% FCS for four days without change of medium. Then the cells were fixed with 2.5% glutaraldehyde, stained with methylene blue and assayed spectrophotometrically.

[3] = system: M-109S (doxorubicin-sensitive human breast carcinoma); experiment: Cytotoxicity assay (methylene blue); tempamine alone or doxorubicin plus tempamine; type: cell-based; details: M-109S; for IC50: Homo sapiens
Procedure: as §1, §2, §3, §4

| Structure (SMILES) | affinity to n-octanol versus aqueous phase [1] | IC50 ([2]; MCF7, read-out: IC50 of Doxorubicin (nM) in the presence of 200 μM tempamine, MCF-7) | IC50 ([2]; MCF7, MCF-7, read-out: IC50 of Doxorubicin (nM) in the presence of 0 μM tempamine) | IC50 ([2]; MCF7, MCF-7, read-out: IC50 of Doxorubicin (nM) in the presence of 50 μM tempamine) | IC50 ([2]; MCF7, MCF-7, read-out: IC50 of Doxorubicin (nM) in the presence of 100 μM tempamine) | change of IC50 value of doxorubicin ([2]; MCF-7, in the presence of 100 μM TMN) | IC50 ([3]; read-out: IC50 of Doxorubicin (nM) in the presence of 200 μM tempamine) | IC50 ([3]; read-out: IC50 of Doxorubicin (nM) in the presence of 0 μM tempamine) | IC50 ([3]; read-out: IC50 of Doxorubicin (nM) in the presence of 100 μM tempamine) | observed IC50 of doxorubicin decreased to ([3]; addition of 100-200 μM tempamine) | IC50 ([2]; MCF7, 72 h, read-out: IC50 (cell growth inhibition)) |
| --- | --- | --- | --- | --- | --- | --- | --- | --- | --- | --- | --- |
| CC1(C)CCCC(C)(C)N1[O] [TEMPO] | much higher affinity to n-octanol than to the aqueous phase | – | – | – | – | – | – | – | – | – | – |
| COc1cccc2c1C(=O)c1c(O)c3c(c(O)c1C2=O)C[C@@](O)(C(=O)CO)C[C@@H]3O[C@H]1C[C@H](N)[C@H](O)[C@H](C)O1 [doxorubicin] | – | 55 ± 4.1 nM | 487 ± 32 nM | 475 ± 38 nM | 67 ± 5.8 nM | decreased by one order of magnitude | 18 ± 1.1 nM | 60 ± 4 nM | 27 ± 1.7 nM | 50% | – |
| CC1(C)CC(O)CC(C)(C)N1[O] [tempol] | much higher affinity to n-octanol than to the aqueous phase | – | – | – | – | – | – | – | – | – | 320000 nM |
